# Experimental data: patent publication US20160177259A1, “[…]” (Evonik Degussa GmbH, priority 2014, published 2016)
# Tested on: Clostridium ljungdahlii
# Assay: Formation of acetic acid and ethanol from synthesis gas in CGF1 mineral medium with refeeding of cysteine (Example 3)
# Assay type: cell-based
# Procedure: For the biotransformation of hydrogen and carbon dioxide to acetic acid and ethanol the homoacetogenic bacterium Clostridium ljungdahlii was cultivated on synthesis gas with refeeding of cysteine. All cultivation steps were carried out under anaerobic conditions in pressure-resistant glass bottles that can be closed airtight with a butyl rubber stopper.
# The chemolithoautotrophic cultivation was carried out in a 1 L pressure-resistant glass bottle at 37° C., 100 rpm and a ventilation rate of 3 L/h with a premixed gas with 67% H2, 33% CO2 in an open water bath shaker for 69 h till OD600nm>0.4. The gas was discharged into the medium through a sparger with a pore size of 10 μm, which was mounted in the center of the reactors. Then the cell suspension was centrifuged and the cell pellet was resuspended in fresh CGF1 mineral medium as disclosed below.
# For the production phase, as many washed cells from the preculture of C. ljungdahlii as necessary for an OD600nm of 0.2 were added to 100 ml mineral medium (CGF1 medium, pH 6.5, 1.4 g/L KOH, 2 g/L (NH4)2SO4, 1 g/L KH2PO4, 1 g/L K2HPO4, 10 mg/L FeSO4 X 7 H2O, 3.8 mg/L MnSO4 X 1 H2O, 246 mg/L MgSO4×7 H2O, aerated for 30 min with a premixed gas with 67% H2 and 33% CO2). […] The cultivation was carried out in 500 mL pressure-resistant glass bottles at 37° C., 150 rpm in an open water bath shaker for 163 h which were aerated to an overpressure of 0.8 bar with a premixed gas with 67% H2, 33% CO2 one time a day. The pH was held >5.0 by intermittent additions of a 140 g/L KOH solution. During the cultivation several 5 mL samples were taken to determinate OD600nm, pH and product formation. […] The determination of the product concentrations including the L-Cysteine concentration was performed by semiquantitative ^1H-NMR spectroscopy. As an internal quantification standard sodium trimethylsilylpropionate (T(M)SP) was used.
# [1] = culture A, 400 mg/L L-cysteine-hydrochloride at start, no refeed, 0 h
# [2] = culture A, 400 mg/L L-cysteine-hydrochloride at start, no refeed, 18.75 h
# [3] = culture A, 400 mg/L L-cysteine-hydrochloride at start, no refeed, 41.5 h
# [4] = culture A, 400 mg/L L-cysteine-hydrochloride at start, no refeed, 46.75 h
# [5] = culture A, 400 mg/L L-cysteine-hydrochloride at start, no refeed, 65.5 h
# [6] = culture A, 400 mg/L L-cysteine-hydrochloride at start, no refeed, 69.5 h
# [7] = culture A, 400 mg/L L-cysteine-hydrochloride at start, no refeed, 89.75 h
# [8] = culture A, 400 mg/L L-cysteine-hydrochloride at start, no refeed, 163.5 h
# [9] = culture B, 200 mg/L L-cysteine-hydrochloride at start, no refeed, 0 h
# [10] = culture B, 200 mg/L L-cysteine-hydrochloride at start, no refeed, 18.75 h
# [11] = culture B, 200 mg/L L-cysteine-hydrochloride at start, no refeed, 41.5 h
# [12] = culture B, 200 mg/L L-cysteine-hydrochloride at start, no refeed, 46.75 h
# [13] = culture B, 200 mg/L L-cysteine-hydrochloride at start, no refeed, 65.5 h
# [14] = culture B, 200 mg/L L-cysteine-hydrochloride at start, no refeed, 69.5 h
# [15] = culture B, 200 mg/L L-cysteine-hydrochloride at start, no refeed, 89.75 h
# [16] = culture B, 200 mg/L L-cysteine-hydrochloride at start, no refeed, 163.5 h
# [17] = culture C, 200 mg/L L-cysteine-hydrochloride at start, re-fed 200 mg/L after 18, 41, 65, 89 h, 0 h
# [18] = culture C, 200 mg/L L-cysteine-hydrochloride at start, re-fed 200 mg/L after 18, 41, 65, 89 h, 18.75 h
# [19] = culture C, 200 mg/L L-cysteine-hydrochloride at start, re-fed 200 mg/L after 18, 41, 65, 89 h, 41.5 h
# [20] = culture C, 200 mg/L L-cysteine-hydrochloride at start, re-fed 200 mg/L after 18, 41, 65, 89 h, 46.75 h
# [21] = culture C, 200 mg/L L-cysteine-hydrochloride at start, re-fed 200 mg/L after 18, 41, 65, 89 h, 65.5 h
# [22] = culture C, 200 mg/L L-cysteine-hydrochloride at start, re-fed 200 mg/L after 18, 41, 65, 89 h, 69.5 h
# [23] = culture C, 200 mg/L L-cysteine-hydrochloride at start, re-fed 200 mg/L after 18, 41, 65, 89 h, 89.75 h
# [24] = culture C, 200 mg/L L-cysteine-hydrochloride at start, re-fed 200 mg/L after 18, 41, 65, 89 h, 95.5 h
# [25] = culture C, 200 mg/L L-cysteine-hydrochloride at start, re-fed 200 mg/L after 18, 41, 65, 89 h, 163.5 h
smiles,measurement,setting,value
"Cl.N[C@@H](CS)C(=O)O [L-Cysteine-HCl, L-cysteine hydrochloride]",Acetate,[1],34.0 mg/L
same,Ethanol,[1],2.0 mg/L
same,OD (600 nm),[1],0.206
same,Acetate,[2],1400.0 mg/L
same,Ethanol,[2],60.0 mg/L
same,OD (600 nm),[2],0.232
same,Acetate,[3],2550 mg/L
same,Ethanol,[3],420 mg/L
same,OD (600 nm),[3],0.293
same,Acetate,[4],2700 mg/L
same,Ethanol,[4],480 mg/L
same,OD (600 nm),[4],0.281
same,Acetate,[5],3500 mg/L
same,Ethanol,[5],580 mg/L
same,OD (600 nm),[5],0.324
same,Acetate,[6],3700 mg/L
same,Ethanol,[6],650 mg/L
same,OD (600 nm),[6],0.366
same,Ethanol,[7],580.0 mg/L
same,OD (600 nm),[7],0.324
same,Acetate,[8],6100.0 mg/L
same,Ethanol,[8],670.0 mg/L
same,OD (600 nm),[8],0.339
same,Acetate,[9],35.0 mg/L
same,Ethanol,[9],1.9 mg/L
same,OD (600 nm),[9],0.197
same,Acetate,[10],1400.0 mg/L
same,Ethanol,[10],100.0 mg/L
same,OD (600 nm),[10],0.261
same,Acetate,[11],2150 mg/L
same,Ethanol,[11],580 mg/L
same,OD (600 nm),[11],0.279
same,Acetate,[12],2200 mg/L
same,Ethanol,[12],630 mg/L
same,OD (600 nm),[12],0.269
same,Acetate,[13],2200 mg/L
same,Ethanol,[13],600 mg/L
same,OD (600 nm),[13],0.271
same,Acetate,[14],2200 mg/L
same,Ethanol,[14],590 mg/L
same,OD (600 nm),[14],0.259
same,Acetate,[15],2350.0 mg/L
same,Ethanol,[15],560.0 mg/L
same,OD (600 nm),[15],0.241
same,Acetate,[16],2550.0 mg/L
same,Ethanol,[16],570.0 mg/L
same,OD (600 nm),[16],0.237
same,cell growth,culture C (re-fed) compared with cultures A and B,stronger cell growth
same,concentrations of acetate and ethanol,"culture C (re-fed) compared with cultures A and B, production phase",increased more
same,Acetate,[17],27.0 mg/L
same,Ethanol,[17],2.0 mg/L
same,OD (600 nm),[17],0.209
same,Acetate,[18],1400.0 mg/L
same,Ethanol,[18],85.0 mg/L
same,OD (600 nm),[18],0.245
same,Acetate,[19],3000 mg/L
same,Ethanol,[19],510 mg/L
same,OD (600 nm),[19],0.339
same,Acetate,[20],3250 mg/L
same,Ethanol,[20],580 mg/L
same,OD (600 nm),[20],0.335
same,Ethanol,[21],790 mg/L
same,OD (600 nm),[21],0.399
same,Ethanol,[22],860 mg/L
same,OD (600 nm),[22],0.392
same,Acetate,[23],5000.0 mg/L
same,Ethanol,[23],810.0 mg/L
same,OD (600 nm),[23],0.431
same,Acetate,[24],5600.0 mg/L
same,Ethanol,[24],880.0 mg/L
same,OD (600 nm),[24],0.434
same,Acetate,[25],7700.0 mg/L
same,Ethanol,[25],960.0 mg/L
same,OD (600 nm),[25],0.481
